From publication PMC5931096, “A Phase I study of the novel immunomodulatory agent PG545 (pixatimod) in subjects with advanced solid tumours” (British Journal of Cancer, 2018)
“Also recorded” adds a separate entry of the source.

Assay: Phase I dose-escalation: safety, tolerability, DLT and MTD of weekly 1-h IV infusion
Type: in vivo
Protocol: The study was an open-label, multicentre, phase 1 dose-escalation study using a 3 + 3 design. The primary objective was to determine the MTD of weekly administered PG545 via IV infusion. Secondary objectives were to characterize safety, tolerability, clinical activity, PK and PD biomarkers.
Patients continued treatment until disease progression, unacceptable toxicity or withdrawal (either voluntarily or investigator-decision).
All patients were assessed for safety, those who received at least one dose of PG545 were evaluated for efficacy. Safety assessment included the incidence of all adverse events (AEs), irrespective of relationship to study drug, according to the National Cancer Institute Common Terminology Criteria for Adverse Events, version 4.0, and the incidence of patients experiencing dose modifications and/or premature discontinuation of study drug. Dose-limiting toxicities (DLTs) used to determine the MTD were defined as occurring during Cycle 1 of treatment only and related to PG545 according to investigator assessment. If no DLT occurred in the first three subjects, the next three-subject cohort was enrolled at the next highest available dose level. If a single DLT occurred, an additional three subjects was enrolled at the same dose level. Dose escalation continued until two subjects of the cohort experienced a DLT; this was defined as the toxic dose level. The dose-escalation phase was completed and MTD determined by reducing the dose to the next lowest dose compared to the toxic dose and expanding this cohort to at least 6 subjects.

SMILES: CC(C)CCC[C@@H](C)[C@H]1CC[C@H]2[C@@H]3CC[C@H]4C[C@@H](O[C@@H]5O[C@H](COS(=O)(=O)O)[C@@H](O[C@H]6O[C@H](COS(=O)(=O)O)[C@@H](O[C@H]7O[C@H](COS(=O)(=O)O)[C@@H](O[C@H]8O[C@H](COS(=O)(=O)O)[C@@H](OS(=O)(=O)O)[C@H](OS(=O)(=O)O)[C@H]8OS(=O)(=O)O)[C@H](OS(=O)(=O)O)[C@H]7OS(=O)(=O)O)[C@H](OS(=O)(=O)O)[C@H]6OS(=O)(=O)O)[C@H](OS(=O)(=O)O)[C@H]5OS(=O)(=O)O)CC[C@]4(C)[C@H]3CC[C@]12C [PG545]
- Acute pulmonary oedema, related AE leading to discontinuation (25 mg, N = 3): 0 n (%)
- Acute pulmonary oedema, related serious AE (25 mg, N = 3): 0 n (%)
- Acute pulmonary oedema, related severe AE (25 mg, N = 3): 0 n (%)
- Blood cholesterol increased, related severe AE (25 mg, N = 3): 0 n (%)
- Blood cholesterol increased, treatment-related AE (25 mg, N = 3): 0 n (%)
- Blood pressure increased, related severe AE (25 mg, N = 3): 0 n (%)
- Chills, related AE leading to discontinuation (25 mg, N = 3): 0 n (%)
- Chills, related severe AE (25 mg, N = 3): 0 n (%)
- Chills, treatment-related AE (25 mg, N = 3): 0 n (%)
- Decreased appetite, treatment-related AE (25 mg, N = 3): 0 n (%)
- Diarrhoea, treatment-related AE (25 mg, N = 3): 0 n (%)
- Epistaxis, related AE leading to discontinuation (25 mg, N = 3): 0 n (%)
- Epistaxis, related serious AE (25 mg, N = 3): 0 n (%)
- Epistaxis, related severe AE (25 mg, N = 3): 0 n (%)
- Fatigue, related severe AE (25 mg, N = 3): 0 n (%)
- Fatigue, treatment-related AE (25 mg, N = 3): 0 n (%)
- Headache, treatment-related AE (25 mg, N = 3): 0 n (%)
- Hypercholesterolemia, treatment-related AE (25 mg, N = 3): 0 n (%)
- Hyperlipidaemia, related severe AE (25 mg, N = 3): 0 n (%)
- Hypertension, related AE leading to discontinuation (25 mg, N = 3): 0 n (%)
- Hypertension, related serious AE (25 mg, N = 3): 0 n (%)
- Hypertension, related severe AE (25 mg, N = 3): 0 n (%)
- Hypertension, treatment-related AE (25 mg, N = 3): 0 n (%)
- Hypovolaemia, related serious AE (25 mg, N = 3): 0 n (%)
- Infusion-related reaction, related serious AE (25 mg, N = 3): 0 n (%)
- Infusion-related reaction, related severe AE (25 mg, N = 3): 0 n (%)
- Infusion-related reaction, treatment-related AE (25 mg, N = 3): 0 n (%)
- Injection site reaction, treatment-related AE (25 mg, N = 3): 2 (67) n (%)
- Nausea, treatment-related AE (25 mg, N = 3): 0 n (%)
- Pyrexia, related AE leading to discontinuation (25 mg, N = 3): 0 n (%)
- Pyrexia, related serious AE (25 mg, N = 3): 0 n (%)
- Pyrexia, related severe AE (25 mg, N = 3): 0 n (%)
- Pyrexia, treatment-related AE (25 mg, N = 3): 0 n (%)
- Acute pulmonary oedema, related AE leading to discontinuation (50 mg, N = 5): 0 n (%)
- Acute pulmonary oedema, related serious AE (50 mg, N = 5): 0 n (%)
- Acute pulmonary oedema, related severe AE (50 mg, N = 5): 0 n (%)
- Blood cholesterol increased, related severe AE (50 mg, N = 5): 0 n (%)
- Blood cholesterol increased, treatment-related AE (50 mg, N = 5): 0 n (%)
- Blood pressure increased, related severe AE (50 mg, N = 5): 0 n (%)
- Chills, related AE leading to discontinuation (50 mg, N = 5): 1 (20) n (%)
- Chills, related severe AE (50 mg, N = 5): 1 (20) n (%)
- Chills, treatment-related AE (50 mg, N = 5): 1 (20) n (%)
- Decreased appetite, treatment-related AE (50 mg, N = 5): 2 (40) n (%)
- Diarrhoea, treatment-related AE (50 mg, N = 5): 1 (20) n (%)
- Epistaxis, related AE leading to discontinuation (50 mg, N = 5): 0 n (%)
- Epistaxis, related serious AE (50 mg, N = 5): 0 n (%)
- Epistaxis, related severe AE (50 mg, N = 5): 0 n (%)
- Fatigue, related severe AE (50 mg, N = 5): 1 (20) n (%)
- Fatigue, treatment-related AE (50 mg, N = 5): 2 (40) n (%)
- Headache, treatment-related AE (50 mg, N = 5): 0 n (%)
- Hypercholesterolemia, treatment-related AE (50 mg, N = 5): 0 n (%)
- Hyperlipidaemia, related severe AE (50 mg, N = 5): 0 n (%)
- Hypertension, related AE leading to discontinuation (50 mg, N = 5): 0 n (%)
- Hypertension, related serious AE (50 mg, N = 5): 0 n (%)
- Hypertension, related severe AE (50 mg, N = 5): 0 n (%)
- Hypertension, treatment-related AE (50 mg, N = 5): 1 (20) n (%)
- Hypovolaemia, related serious AE (50 mg, N = 5): 0 n (%)
- Infusion-related reaction, related serious AE (50 mg, N = 5): 0 n (%)
- Infusion-related reaction, related severe AE (50 mg, N = 5): 0 n (%)
- Infusion-related reaction, treatment-related AE (50 mg, N = 5): 0 n (%)
- Injection site reaction, treatment-related AE (50 mg, N = 5): 0 n (%)
- Nausea, treatment-related AE (50 mg, N = 5): 4 (80) n (%)
- Pyrexia, related AE leading to discontinuation (50 mg, N = 5): 1 (20) n (%)
- Pyrexia, related serious AE (50 mg, N = 5): 1 (20) n (%)
- Pyrexia, related severe AE (50 mg, N = 5): 1 (20) n (%)
- Pyrexia, treatment-related AE (50 mg, N = 5): 3 (60) n (%)
- Dose-limiting toxicities (DLTs) (100 mg cohort): No DLTs were noted; also recorded: no further DLT observed
- Hypertension (100 mg cohort): not observed
- Acute pulmonary oedema, related AE leading to discontinuation (100 mg, N = 6): 0 n (%)
- Acute pulmonary oedema, related serious AE (100 mg, N = 6): 0 n (%)
- Acute pulmonary oedema, related severe AE (100 mg, N = 6): 0 n (%)
- Blood cholesterol increased, related severe AE (100 mg, N = 6): 0 n (%)
- Blood cholesterol increased, treatment-related AE (100 mg, N = 6): 1 (17) n (%)
- Blood pressure increased, related severe AE (100 mg, N = 6): 0 n (%)
- Chills, related AE leading to discontinuation (100 mg, N = 6): 0 n (%)
- Chills, related severe AE (100 mg, N = 6): 0 n (%)
- Chills, treatment-related AE (100 mg, N = 6): 0 n (%)
- Decreased appetite, treatment-related AE (100 mg, N = 6): 1 (17) n (%)
- Diarrhoea, treatment-related AE (100 mg, N = 6): 2 (33) n (%)
- Epistaxis, related AE leading to discontinuation (100 mg, N = 6): 0 n (%)
- Epistaxis, related serious AE (100 mg, N = 6): 0 n (%)
- Epistaxis, related severe AE (100 mg, N = 6): 0 n (%)
- Fatigue, related severe AE (100 mg, N = 6): 1 (17) n (%)
- Fatigue, treatment-related AE (100 mg, N = 6): 2 (33) n (%)
- Headache, treatment-related AE (100 mg, N = 6): 2 (33) n (%)
- Hypercholesterolemia, treatment-related AE (100 mg, N = 6): 2 (33) n (%)
- Hyperlipidaemia, related severe AE (100 mg, N = 6): 1 (17) n (%)
- Hypertension, related AE leading to discontinuation (100 mg, N = 6): 0 n (%)
- Hypertension, related serious AE (100 mg, N = 6): 0 n (%)
- Hypertension, related severe AE (100 mg, N = 6): 0 n (%)
- Hypertension, treatment-related AE (100 mg, N = 6): 0 n (%)
- Hypovolaemia, related serious AE (100 mg, N = 6): 1 (17) n (%)
- Infusion-related reaction, related serious AE (100 mg, N = 6): 0 n (%)
- Infusion-related reaction, related severe AE (100 mg, N = 6): 0 n (%)
- Infusion-related reaction, treatment-related AE (100 mg, N = 6): 0 n (%)
- Injection site reaction, treatment-related AE (100 mg, N = 6): 0 n (%)
- Nausea, treatment-related AE (100 mg, N = 6): 0 n (%)
- Pyrexia, related AE leading to discontinuation (100 mg, N = 6): 0 n (%)
- Pyrexia, related serious AE (100 mg, N = 6): 0 n (%)
- Pyrexia, related severe AE (100 mg, N = 6): 0 n (%)
